Test results published in PubChem BioAssay AID328 (DTP/NCI, 2004).
Toxic doses and inconclusive results are not listed. How the source made its calls: active means survival T/C of 150% or more; inactive means T/C below 125% in these data.

Tested on: BDF1 mice, P388 leukemia ip, median survival T/C
Experiment: NCI In Vivo Anticancer Drug Screen. Data for tumor model P388 Leukemia (intraperitoneal) in B6D2F1 (BDF1) mice
Settings: endpoint: median survival time, higher = longer survival
Outline: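 Mice carrying the transplantable tumour receive compound or vehicle. Survival is followed in each arm, and the treated measure is divided by the vehicle measure.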

Measured: T/C

CCc1nc(N)nc(N)c1-c1ccc(Cl)cc1
inactive: dose: 2.0 mg/kg/injection, schedule: Q03HX008 (ip), vehicle: Klucel (hydroxypropylcellulose) (HPC) 100 % of control | dose: 2.0 mg/kg/injection, schedule: Q03HX016 (ip), vehicle: Klucel (hydroxypropylcellulose) (HPC) 91 % of control | dose: 2.0 mg/kg/injection, schedule: Q03HX024 (ip), vehicle: Klucel (hydroxypropylcellulose) (HPC) 91 % of control | dose: 4.0 mg/kg/injection, schedule: Q01DX009 (ip), vehicle: Klucel (hydroxypropylcellulose) (HPC) 95 % of control | dose: 4.0 mg/kg/injection, schedule: Q01DX009 (sc), vehicle: Klucel (hydroxypropylcellulose) (HPC) 100 % of control | dose: 4.0 mg/kg/injection, schedule: Q03HX008 (ip), vehicle: Klucel (hydroxypropylcellulose) (HPC) 95 % of control | dose: 4.0 mg/kg/injection, schedule: Q03HX016 (ip), vehicle: Klucel (hydroxypropylcellulose) (HPC) 100 % of control | dose: 4.0 mg/kg/injection, schedule: Q03HX024 (ip), vehicle: Klucel (hydroxypropylcellulose) (HPC) 91 % of control | dose: 8.0 mg/kg/injection, schedule: Q01DX009 (ip), vehicle: Klucel (hydroxypropylcellulose) (HPC) 91 % of control | dose: 8.0 mg/kg/injection, schedule: Q01DX009 (sc), vehicle: Klucel (hydroxypropylcellulose) (HPC) 100 % of control | dose: 8.0 mg/kg/injection, schedule: Q01DX010 (ip), vehicle: saline 100 % of control | dose: 8.0 mg/kg/injection, schedule: Q03HX008 (ip), vehicle: Klucel (hydroxypropylcellulose) (HPC) 100 % of control | dose: 8.0 mg/kg/injection, schedule: Q03HX016 (ip), vehicle: Klucel (hydroxypropylcellulose) (HPC) 91 % of control | dose: 8.0 mg/kg/injection, schedule: Q03HX024 (ip), vehicle: Klucel (hydroxypropylcellulose) (HPC) 95 % of control | dose: 16.0 mg/kg/injection, schedule: Q01DX001 (ip), vehicle: Klucel (hydroxypropylcellulose) (HPC) 100 % of control | dose: 16.0 mg/kg/injection, schedule: Q01DX001 (oral), vehicle: Klucel (hydroxypropylcellulose) (HPC) 100 % of control | dose: 16.0 mg/kg/injection, schedule: Q01DX001 (sc), vehicle: Klucel (hydroxypropylcellulose) (HPC) 100 % of control | dose: 16.0 mg/kg/injection, schedule: Q01DX009 (ip), vehicle: Klucel (hydroxypropylcellulose) (HPC) 91 % of control | dose: 16.0 mg/kg/injection, schedule: Q01DX009 (oral), vehicle: Klucel (hydroxypropylcellulose) (HPC) 104 % of control | dose: 16.0 mg/kg/injection, schedule: Q01DX009 (sc), vehicle: Klucel (hydroxypropylcellulose) (HPC) 100 % of control | dose: 16.0 mg/kg/injection, schedule: Q01DX010 (ip), vehicle: saline 95 % of control | dose: 16.0 mg/kg/injection, schedule: Q03HX008 (ip), vehicle: Klucel (hydroxypropylcellulose) (HPC) 91 % of control | dose: 16.0 mg/kg/injection, schedule: Q03HX016 (ip), vehicle: Klucel (hydroxypropylcellulose) (HPC) 100 % of control | dose: 16.0 mg/kg/injection, schedule: Q03HX024 (ip), vehicle: Klucel (hydroxypropylcellulose) (HPC) 100 % of control | dose: 16.0 mg/kg/injection, schedule: Q04DX003 (ip), vehicle: Klucel (hydroxypropylcellulose) (HPC) 100 % of control | dose: 16.0 mg/kg/injection, schedule: Q08DX002 (ip), vehicle: Klucel (hydroxypropylcellulose) (HPC) 100 % of control | dose: 32.0 mg/kg/injection, schedule: Q01DX001 (ip), vehicle: Klucel (hydroxypropylcellulose) (HPC) 100 % of control | dose: 32.0 mg/kg/injection, schedule: Q01DX001 (oral), vehicle: Klucel (hydroxypropylcellulose) (HPC) 90 % of control | dose: 32.0 mg/kg/injection, schedule: Q01DX001 (sc), vehicle: Klucel (hydroxypropylcellulose) (HPC) 104 % of control | dose: 32.0 mg/kg/injection, schedule: Q01DX009 (ip), vehicle: Klucel (hydroxypropylcellulose) (HPC) 95 % of control | dose: 32.0 mg/kg/injection, schedule: Q01DX009 (sc), vehicle: Klucel (hydroxypropylcellulose) (HPC) 100 % of control | dose: 32.0 mg/kg/injection, schedule: Q01DX010 (ip), vehicle: saline 90 % of control | dose: 32.0 mg/kg/injection, schedule: Q04DX003 (ip), vehicle: Klucel (hydroxypropylcellulose) (HPC) 100 % of control | dose: 32.0 mg/kg/injection, schedule: Q08DX002 (ip), vehicle: Klucel (hydroxypropylcellulose) (HPC) 95 % of control | dose: 64.0 mg/kg/injection, schedule: Q01DX001 (ip), vehicle: Klucel (hydroxypropylcellulose) (HPC) 100 % of control | dose: 64.0 mg/kg/injection, schedule: Q01DX001 (oral), vehicle: Klucel (hydroxypropylcellulose) (HPC) 104 % of control | dose: 64.0 mg/kg/injection, schedule: Q01DX001 (sc), vehicle: Klucel (hydroxypropylcellulose) (HPC) 109 % of control | dose: 64.0 mg/kg/injection, schedule: Q01DX009 (ip), vehicle: Klucel (hydroxypropylcellulose) (HPC) 116 % of control | dose: 64.0 mg/kg/injection, schedule: Q01DX009 (sc), vehicle: Klucel (hydroxypropylcellulose) (HPC) 113 % of control | dose: 64.0 mg/kg/injection, schedule: Q01DX010 (ip), vehicle: saline 90 % of control | dose: 64.0 mg/kg/injection, schedule: Q04DX003 (ip), vehicle: Klucel (hydroxypropylcellulose) (HPC) 100 % of control | dose: 64.0 mg/kg/injection, schedule: Q08DX002 (ip), vehicle: Klucel (hydroxypropylcellulose) (HPC) 91 % of control | dose: 128.0 mg/kg/injection, schedule: Q01DX001 (ip), vehicle: Klucel (hydroxypropylcellulose) (HPC) 100 % of control | dose: 128.0 mg/kg/injection, schedule: Q01DX001 (oral), vehicle: Klucel (hydroxypropylcellulose) (HPC) 100 % of control | dose: 128.0 mg/kg/injection, schedule: Q01DX001 (sc), vehicle: Klucel (hydroxypropylcellulose) (HPC) 100 % of control | dose: 128.0 mg/kg/injection, schedule: Q04DX003 (ip), vehicle: Klucel (hydroxypropylcellulose) (HPC) 100 % of control | dose: 128.0 mg/kg/injection, schedule: Q08DX002 (ip), vehicle: Klucel (hydroxypropylcellulose) (HPC) 100 % of control
